Structures can show the parent of a compound that is named as a salt. Where two headings read alike, the source gives them in different places.
Columns and labels:
[1] = system: MRSA (ATCC 33592); assay: MIC determination and sensitization fold on MRSA; type: cell-based, methicillin-resistant Staphylococcus aureus; conditions: for MIC: Staphylococcus aureus, 24 h; for Sensitization fold: rifampicin
Description: Bacteria strains: E. coli (ATCC 25922), A. baumannii (ATCC 17978), K. pneumoniae (43816), S. maltophilia (ATCC 31559), S. typhimurium (ATCC 14028), C. werkmanii (ATCC 51114), S. aureus (ATCC 12600) and methicillin-resistant Staphylococcus aureus (MRSA, ATCC 33592) strains were purchased from ATCC. NR698 was provided.
(§1) Bacteria culture and MICs determination: Gram-negative bacteria were cultured in Mueller Hinton II cation-adjusted broth. Gram-positive bacteria were cultured in LB broth. Mycobacterium smegmatis was cultured in Middlebrook 7H9 Broth. MICs of antibiotics itself were determined by performing two-fold serial dilutions of antibiotics. MICs of antibiotics in the presence of bacterial sensitizers were determined by performing two-fold serial dilutions of antibiotics with or without a constant concentration of bacterial sensitizers. The MICs tests were performed on 96-well plates with a final volume of 200 μl Mueller Hinton II cation-adjusted broth in each well. Each well was inoculated with 5×10^5 CFU/ml bacteria and was incubated for 24 h at 37° C. with continuous shaking of 200 rpm. The bacterial density was then determined by OD600. Bacterial growth %=OD600 of antibiotic treatment group/OD600 of antibiotic non-treatment group. MICs was determined as the concentrations that inhibit more than 90% of bacteria growth.
(§2) Sensitization fold determination and FIC index calculations: Sensitization fold=MIC of antibiotic only/MIC of antibiotic with bacterial sensitizer. […] Since the MICs were determined by performing two-fold serial dilutions of antibiotic, so the sensitization fold can is the times of 2.
(§3) Bacteria strains (as indicated in Table 5B) were cultured with rifampicin at various concentrations in the presence or absence of 10 μM of the indicated compound for 20 h at 37° C. The MIC, sensitization, cytotoxicity, and MIC on mycobacteria were tested according to methods described herein. […] The sensitization activities of compounds on MRSA were tested using rifampicin. The sensitization activities of compounds on E. coli were tested using rifampicin.

[2] = Cytotoxicity on mammalian cells (CCK-8), NIH3T3; type: cell-based; conditions: mouse, NIH3T3 cells, 3T3 cell line
Description: (§4) Cytotoxicity test of bacterial sensitizers on mammalian cells. Cell viability was assessed by using Cell Counting Kit-8 (CCK-8, Dojindo, Japan). HEK293 or NIH3T3 cells were seeded in a 96-well plate one day before the experiment to reach 80% confluency. Cells were then incubated with various concentration of bacterial sensitizers at 37° C. with 5% CO2 for 24 h, then 10 μL of CCK-8 solution was added to each well, and the plate was incubated for an additional at 37° C. 2 h with 5% CO2. The optical density at 450 nm was recorded by plate reader; and the results were calculated as a percentage of viability compared with the untreated control.

[3] = system: E. coli (ATCC 25922); assay: MIC determination, sensitization fold and FIC index on E. coli; type: cell-based; conditions: for MIC: Escherichia coli, ATCC25922, 24 h; for sensitization activity: compound at up to 10 μM; for Sensitization: compound up to 25 μM
Description: as §1, §2
FIC index between compound a and b was calculated according to the formula below: […]
FIC≤0.5: Synergy; FIC between 0.5 and 1: Additive; FIC between 1 and […]: no interaction; FIC >4: antagonism.
as §3

[4] = Cytotoxicity in H9c2 cells (CCK-8); type: cell-based; conditions: rat, H9c2 cells; H9c2 cell line
Description: The cytotoxicity in H9c2 (ATCC®CRL-1446™) cells was also determined. The H9c2 cells were maintained in DMEM (Dulbecco's Modified Eagle's Medium) supplemented with 10% fetal bovine serum (MidSci; S01520HI) and 1% penicillin-streptomycin (Sigma-Aldrich; P4333) at 37° C. with 5% CO2. The H9c2 cells were seeded in 96-well plate one day before the experiment. Different concentrations of di-amidine compounds were added into the H9c2 cells. The cells were then incubated with the compounds for 24 hours at 37° C. with 5% CO2. The cell viability was tested by the CCK-8. Specifically, after 24 hour incubation, 10 μL CCK-8 was added to each well. After 3 hours incubation at 37° C., the absorbance at 450 nm was recorded by a plate reader.

[5] = system: B. subtilis; assay: MIC determination and sensitization fold on B. subtilis; type: cell-based; conditions: B. subtilis; for Sensitization fold / Sensitization: erythromycin; for MIC: Bacillus subtilis, 24 h, compound alone, read-out: MIC; for Sensitization: compound up to 12 μM
[6] = system: HEK293 cells; assay: Cytotoxicity on mammalian cells (CCK-8), HEK293; type: cell-based; conditions: for IC50: Homo sapiens
Description: as §4

[7] = Cytotoxicity on mammalian cells (CCK-8), HEK293; type: cell-based; conditions: human, HEK293 cells; HEK293 cell line; 24 h
Description: as §4

[8] = 10 μM compound, rifampicin as the antibiotic (Table 6)
[9] = MRSA, compound alone, read-out: MIC
[10] = E. coli, rifampicin, compound at 25 μM
[11] = E. coli, compound alone, read-out: MIC
[12] = E. coli, rifampicin, compound at 12.5 μM

| Compound | CC50 at 24 h [2] [µM] | Sensitization fold [3, 8] [fold] | CC50 at 24 h [4] [µM] | Sensitization fold ([5]; compound at 6 μM) | CC50 at 24 h [7] [µM] | MIC [1, 9] [µM] | MIC [3, 11] [µM] | sensitization activity ([3]; rifampicin) | Sensitization fold ([5]; compound at 12 μM) | MIC [5] [µM] | Sensitization ([3]; E. coli, rifampicin) | also measured |
| --- | --- | --- | --- | --- | --- | --- | --- | --- | --- | --- | --- | --- |
| CC(C)(C)c1cc(COc2ccc(C(=N)N)cc2F)cc(COc2ccc(C(=N)N)cc2F)c1 [MD-115, 4,4′-(((5-(tert-butyl)-1,3-phenylene)bis(methylene))bis(oxy))bis(3-fluorobenzimidamide) dihydrochloride] | 25 to 50 | 256 | 25 | 8-fold at 6 μM | 25 to 50 |  |  |  |  |  |  | MIC [1]: 25 µM; Sensitization fold ([3]; E. coli, rifampicin, compound at 10 μM): 256-fold at 10 μM; IC50 ([6]; HEK293): 25 to 50 µM |
| Cc1cc(COc2ccc(CN)cc2)cc(COc2ccc(CN)cc2)c1 [MD-106, ((((S-methyl-1,3-phenylene)bis(methylene))bis(oxy))bis(4,1-phenylene))dimethanamine dihydrochloride] | 25 | 1 | 12.5 |  | 25 | > 50 | 100 | no sensitization activity | 16-fold at 12 μM | > 50 |  | Sensitization fold [3, 10]: 4-fold at 25 μM; Sensitization fold ([5]; compound at 4 μM): 4-fold at 4 μM |
| COc1cc(C(=N)N)ccc1OCc1cc(COc2ccc(C(=N)N)cc2OC)cc(C(C)(C)C)c1 [MD-114, 1,3-Bis {[4-amidino-2-methoxy)-phenoxymethyl]}-5-(tert-butyl)benzene dihydrochloride] | 50 |  |  |  |  |  | 100 |  | 8-fold at 12 μM | 25 |  | Sensitization fold [3, 12]: 8-fold at 12.5 μM; CC50 ([6]; HEK293 cell line, 24 h): 100 µM |
| Cc1cc(COc2cccc(C(=N)N)c2)cc(COc2cccc(C(=N)N)c2)c1 [MD-116, 3,3′-(((5-methyl-1,3-phenylene)bis(methylene))bis(oxy))dibenzimidamide dihydrochloride] | > 100 |  |  |  | > 100 |  |  |  | 32-fold at 12 μM |  |  | Sensitization fold ([1]; MRSA, compound at 12.5 μM): 4-fold at 12.5 μM.; Sensitization fold [3, 10]: 8-fold at 25 μM; MIC [3]: 100 µM |
| Cc1cc(CSc2ccc(C3=NCCN3)cc2)cc(CSc2ccc(C3=NCCN3)cc2)c1 [MD-118, 1,3-Bis {(4-(2-imidazolino))-thiophenoxymethyl}-5-methylbenzene dihydrochloride] | 12.5 |  |  | 16-fold at 6 μM, | 25 |  | > 50 |  |  | > 25 | No effect up to 25 μM. | Sensitization fold ([5]; compound at 3 μM): 4-fold at 3 μM |
| Cc1cc(COc2ccc(C3=NCCCN3)cc2)cc(COc2ccc(C3=NCCCN3)cc2)c1 [MD-113, 2,2′-((((5-methyl-1,3-phenylene)bis(methylene))bis(oxy))bis(4,1-phenylene))bis(1,4,5,6-tetrahydropyrimidine) dihydrochloride] | > 100 |  |  |  | > 100 |  |  | no sensitization activity |  | 50 | No effect up to 25 μM. | Sensitization fold ([1]; MRSA, compound at 12 μM): 4-fold at 12 μM.; Sensitization fold ([1]; MRSA, compound at 25 μM): 8-fold at 25 μM,; MIC [1]: > 50 µM; MIC [3]: > 100 µM; Sensitization [5]: No effect up to 12 μM. |
| Cc1cc(CSc2ccc(C(=N)N)cc2)cc(CSc2ccc(C(=N)N)cc2)c1 [MD-117, 4,4′-(((5-methyl-1,3-phenylene)bis(methylene))bis(sulfanediyl)) dibenzimidamide dihydrochloride] | 25 to 50 | 32 |  | 32-fold at 6 μM | 25 to 50 | 12.5 | 50 |  |  | 25 |  | Sensitization fold ([3]; E. coli, rifampicin, compound at 6 μM): 8-fold at 6 μM.; Sensitization fold [3, 12]: 32-fold at 12.5 μM; Sensitization fold ([5]; compound at 3 μM): 8-fold at 3 μM.; IC50 ([6]; HEK293 cells (Table 6), read-out: IC50): 25 to 50 µM |
| CC(C)NC(=N)c1ccc(OCc2cccc(COc3ccc(C(=N)NC(C)C)cc3F)c2F)c(F)c1 [MD-111, 1,3-Bis {(4-isopropylamidino-2-fluoro)-phenoxymethyl}-2-fluorobenzene dihydrochloride] | > 100 |  |  |  | > 100 | 50 | 50 |  |  | 25 | No effect up to 25 μM. | Sensitization fold ([1]; MRSA, compound at 6 μM): 8 -fold at 6 μM.; Sensitization fold ([1]; MRSA, compound at 12 μM): 16-fold at 12 μM,; Sensitization [5]: No effect up to 12 μM. |
| Cc1cc(COc2ccc(C3=NCCN3)cc2)cc(COc2ccc(C3=NCCN3)cc2)c1 [MD-129, 1,3-Bis {(4-(2-imidazolino))-phenoxymethyl}-5-methylbenzene dihydrochloride] | 25 | 1 | 25 |  | 50 |  | > 50 | no sensitization activity | 4-fold at 12 μM | > 50 | No effect up to 25 μM |  |
| CC(C)NC(=N)c1ccc(OCc2cccc(COc3ccc(C(=N)NC(C)C)cc3)c2F)cc1 [MD-110, 1,3-Bis{(4-isopropylamidino)-phenoxymethyl}-2-fluorobenzene dihydrochloride] | > 100 |  |  | No effect at 6 μM. | > 100 |  | 25 |  |  | 25 | No effect up to 25 μM. | Sensitization fold ([1]; MRSA, compound at 4 μM): 16-fold at 4 μM. |

— patent US20230105108A1, “COMPOUNDS FOR THE TREATMENT OF BACTERIAL INFECTIONS AND POTENTIATION OF ANTIBIOTICS” (GEORGIA STATE UNIVERSITY RESEARCH FOUNDATION, INC., priority 2019, published 2023)
